Data set [1] deals with isolated non-ischemic working rat heart. Put plainly: Glucose oxidation rates in isolated non-ischemic working rat heart ([14C] glucose, 14CO2 production). The following applies: 60 minutes aerobic perfusion, compound added about 5 minutes into the aerobic period; saline control 1580±183. How it is done: The goal was to determine if […] altered glucose oxidation rates or cardiac function in the isolated non-ischemic working rat heart model. This was achieved by subjecting rat hearts to 60 minutes of aerobic perfusion. […] was added about 5 minutes into the aerobic period and the effects of […] on glucose metabolism was determined during the aerobic period. […] Rat hearts were cannulated for isolated working heart perfusions as described previously (Lopaschuk et al., J Pharmacol Exp Ther. 1993 January;264(1):135-44). In brief, male Sprague-Dawley rats (0.3-0.35 kg) were anesthetized with pentobarbital sodium (60 mg/kg i. p.). The hearts were quickly excised, the aorta was cannulated, and a retrograde perfusion at 37° C. was initiated at a hydrostatic pressure of 60 mm Hg. Hearts were trimmed of excess tissue, and the pulmonary artery and the opening to the left atrium were then cannulated. […] Spontaneously beating hearts were used in all perfusions, heart rate and aortic pressure were measured with a Biopac Systems Inc. blood pressure transducer connected to the aortic outflow line. Cardiac output and aortic flow were measured with Transonic […] ultrasonic flow probes in the preload and afterload lines, respectively. Coronary flow was calculated as the difference between cardiac output and aortic flow. […]

Data set [2] in a line: Treatment of stress-induced angina in patients (P5P, pyridoxine, derivatives; alone and in combination therapies). Type of data set: in vivo, human. Here is the method:
Patients with a history of exercise induced angina are treated with P5P either before or after the onset of angina. Several measures are used to test the effectiveness of P5P for the treatment of angina including the time to onset of angina, exercise duration, time to 1 mm ST depression, and patient pain evaluation.
The experiment of Example 25 is repeated, this time testing combination therapies.
The Experiments of Example 28 are repeated, this time using pyridoxine instead of P5P.

Data set [3] in a line: Animal models for treatment of stress-induced angina (canine model of myocardial ischemia, canine model of exertional dysfunction, isolated perfused rat heart model of low flow ischemia). Type of data set: in vivo. The following applies: compared with untreated or sham treated control animals. From the text: The canine model of myocardial ischemia, the canine model of exertional dysfunction, and the isolated perfused rate heart model of low flow ischemia, as previously and elsewhere described, is used to determine the effectiveness of P5P, pyridoxal, pyridoxine, and the compounds synthesized in Examples 1-24, to determine effectiveness of these compounds in treatment of angina.
The animal model experiments of Example 26 are repeated, this time with the combination treatment groups as elucidated in Examples 28, 29 and 30.

For data set [4] the following is noted: water, alcohol, and ether; cited from earlier work.
Setting [5] is: patients with a history of exercise induced angina, treated before or after the onset of angina.

Compound `O=C(O)C(Cl)Cl` [DCA, dichloroacetic acid, reference compound] registered a glucose oxidation rates in data set [1] of 2422±140.
On to `Cc1ncc(COP(=O)(O)O)c(C=O)c1O` [Example P5P, 3-hydroxy-2-methyl-5-[(phosphonooxy)methyl]-4-pyridine-carboxaldehyde], for which, in data set [2] (setting [5]), the exercise duration entry is listed as “increased”, the “onset to angina (time to onset of angina)” value is “diminished”, the “patient pain (patient pain evaluation)” value was “diminished” and the “time to 1 mm ST depression” value is “diminished”. For the same compound, the “angina outcomes, treatment alone” value in data set [2] (patients, P5P treatment alone (Example 28)) was “improves angina outcomes”. In addition, the “symptoms and levels of angina” value in data set [3] is “significantly lower symptoms and levels of angina”. The glucose oxidation rates in data set [1] amounted to 2253±230. Moreover, the solubility result in data set [4] is “essentially insoluble in water, alcohol, and ether”.
On to `Cc1ncc(CO)c(C=O)c1O` [pyridoxal], for which the “symptoms and levels of angina” value in data set [3] was “significantly lower symptoms and levels of angina”.
As for `Cc1ncc(CO)c(CO)c1O` [pyridoxine, 2-methyl-3-hydroxy-4,5-di(hydroxymethyl)pyridine], in data set [3], the “symptoms and levels of angina” value was “significantly lower symptoms and levels of angina”.

(Values after US20080311099A1, “Pyridoxal-5-Phosphate and Related Compounds in Combination With Therapeutic Cardiovascular Compounds for Treating Angina” (MEDICURE INTERNATIONAL INC., priority 2004, published 2008).)
